Laboratory results: PubChem BioAssay (NCI)
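Step 1: Grow cells in 96-well plates. Step 2: Expose to compound for 48 hours at 5 concentrations. Step 3: Interpolate endpoints linearly; if unreached, use highest concentration. The concentration for full growth arrest is given as TGI.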

Experiments:
Assay in all cases: inhibition of tumour cell growth, NCI panel, 48 h
CAKI-1 renal = test system: CAKI-1 renal
SF-268 CNS = test system: SF-268 CNS
ACHN renal = test system: ACHN renal
UACC-62 melanoma = test system: UACC-62 melanoma
OVCAR-4 ovarian = test system: OVCAR-4 ovarian
HCT-15 colon = test system: HCT-15 colon
MCF7 breast = test system: MCF7 breast
MDA-MB-435 = test system: MDA-MB-435
NCI-H522 lung = test system: NCI-H522 lung
HOP-62 NSCLC = test system: HOP-62 NSCLC
SK-MEL-2 melanoma = test system: SK-MEL-2 melanoma
HCT-116 colon = test system: HCT-116 colon
SK-MEL-28 melanoma = test system: SK-MEL-28 melanoma
SN12C renal = test system: SN12C renal
LOX IMVI melanoma = test system: LOX IMVI melanoma
HCC-2998 colon = test system: HCC-2998 colon
COLO 205 colon = test system: COLO 205 colon
HS 578T breast = test system: HS 578T breast
SK-MEL-5 melanoma = test system: SK-MEL-5 melanoma
U251 CNS = test system: U251 CNS
SF-295 CNS = test system: SF-295 CNS
K-562 leukemia = test system: K-562 leukemia
A498 renal = test system: A498 renal
HL-60(TB) leukemia = test system: HL-60(TB) leukemia
SK-OV-3 ovarian = test system: SK-OV-3 ovarian
IGROV1 ovarian = test system: IGROV1 ovarian
MALME-3M melanoma = test system: MALME-3M melanoma
M14 melanoma = test system: M14 melanoma
KM12 colon = test system: KM12 colon
PC-3 prostate = test system: PC-3 prostate
NCI-H23 lung = test system: NCI-H23 lung
NCI/ADR-RES ovarian = test system: NCI/ADR-RES ovarian
NCI-H226 lung = test system: NCI-H226 lung
OVCAR-3 ovarian = test system: OVCAR-3 ovarian
RPMI-8226 leukemia = test system: RPMI-8226 leukemia
HOP-92 NSCLC = test system: HOP-92 NSCLC
SF-539 CNS = test system: SF-539 CNS
TK-10 renal = test system: TK-10 renal
RXF 393 renal = test system: RXF 393 renal
UO-31 renal = test system: UO-31 renal
NCI-H460 lung = test system: NCI-H460 lung
786-0 renal = test system: 786-0 renal
CCRF-CEM leukemia = test system: CCRF-CEM leukemia
EKVX NSCLC = test system: EKVX NSCLC
SW-620 colon = test system: SW-620 colon
A549 NSCLC = test system: A549 NSCLC
SNB-19 CNS = test system: SNB-19 CNS
MDA-N = test system: MDA-N
MDA-MB-231 breast = test system: MDA-MB-231 breast
BT-549 breast = test system: BT-549 breast
HT29 colon = test system: HT29 colon
OVCAR-8 ovarian = test system: OVCAR-8 ovarian
UACC-257 melanoma = test system: UACC-257 melanoma
DU-145 prostate = test system: DU-145 prostate
MOLT-4 leukemia = test system: MOLT-4 leukemia
SNB-75 CNS = test system: SNB-75 CNS
OVCAR-5 ovarian = test system: OVCAR-5 ovarian
T-47D breast = test system: T-47D breast

O=[N+]([O-])/C=C/c1cc2ccc3ccccc3c2[nH]1 showed a TGI (CAKI-1 renal) of 6.15 µM, a TGI (SF-268 CNS) of 4.02 µM and a TGI (ACHN renal) of 2.68 µM. For the same compound, the TGI (UACC-62 melanoma) was 3.51 µM, the TGI (OVCAR-4 ovarian) was 4.95 µM and the TGI (HCT-15 colon) was over 23.7 µM. It also gave a TGI (MCF7 breast) of 4.29 µM, a TGI (MDA-MB-435) of 3.73 µM and a TGI (NCI-H522 lung) of 2.4 µM. It also gave a TGI (HOP-62 NSCLC) of 4.39 µM, a TGI (SK-MEL-2 melanoma) of 2.39 µM and a TGI (HCT-116 colon) of 3.43 µM. The TGI (SK-MEL-28 melanoma) was 4.79 µM, the TGI (SN12C renal) was 3.81 µM and the TGI (LOX IMVI melanoma) was 2.42 µM. It also gave a TGI (HCC-2998 colon) of 3.5 µM, a TGI (COLO 205 colon) of 4.29 µM and a TGI (HS 578T breast) of 22.2 µM. For the same compound, the TGI (SK-MEL-5 melanoma) was 3.26 µM, the TGI (U251 CNS) was 2.95 µM and the TGI (SF-295 CNS) was 5.86 µM. For the same compound, the TGI (K-562 leukemia) was 18.2 µM, the TGI (A498 renal) was 3.16 µM and the TGI (HL-60(TB) leukemia) was 5.29 µM. For the same compound, the TGI (SK-OV-3 ovarian) was 17.2 µM, the TGI (IGROV1 ovarian) was 1.89 µM and the TGI (MALME-3M melanoma) was 3.31 µM. The TGI (M14 melanoma) was 3.33 µM, the TGI (KM12 colon) was 3.99 µM and the TGI (PC-3 prostate) was 3 µM. It also gave a TGI (NCI-H23 lung) of 5.07 µM, a TGI (NCI/ADR-RES ovarian) of 6.87 µM and a TGI (NCI-H226 lung) of 2.78 µM. The TGI (OVCAR-3 ovarian) was 3.11 µM, the TGI (RPMI-8226 leukemia) was 0.708 µM and the TGI (HOP-92 NSCLC) was 3.64 µM. The TGI (SF-539 CNS) was 4.99 µM, the TGI (TK-10 renal) was 3.08 µM and the TGI (RXF 393 renal) was 2.96 µM. It also gave a TGI (UO-31 renal) of 3.05 µM, a TGI (NCI-H460 lung) of 5.61 µM and a TGI (786-0 renal) of 3.07 µM. The TGI (CCRF-CEM leukemia) was 2.8 µM, the TGI (EKVX NSCLC) was 5.33 µM and the TGI (SW-620 colon) was 4.87 µM. For the same compound, the TGI (A549 NSCLC) was 4.88 µM, the TGI (SNB-19 CNS) was 7.79 µM and the TGI (MDA-N) was 4.79 µM. It also gave a TGI (MDA-MB-231 breast) of 3.2 µM, a TGI (BT-549 breast) of 4.44 µM and a TGI (HT29 colon) of 5.86 µM. It also gave a TGI (OVCAR-8 ovarian) of over 21 µM, a TGI (UACC-257 melanoma) of 6.45 µM and a TGI (DU-145 prostate) of 3.9 µM. For the same compound, the TGI (MOLT-4 leukemia) was over 100 µM, the TGI (SNB-75 CNS) was 3.87 µM and the TGI (OVCAR-5 ovarian) was 4.55 µM. It also gave a TGI (T-47D breast) of 3.89 µM.
